In one test the test system is P. mirabilis EN0457. In words: MIC. In kind it is cell-based, Proteus mirabilis. To be noted: in FdUrd+trimethoprim+uridine combination.
The subject of another test is E. coli EN0139. Nature of the test: MIC. In kind it is cell-based. To be noted: in FdUrd+trimethoprim+uridine combination.
A further test has as its system A. baumannii EN016. In words: MIC. In kind it is cell-based, Acinetobacter baumannii. The settings on record: in FdUrd+trimethoprim+uridine combination.
The next test concerns P. aeruginosa EN005. Nature of the test: MIC. In kind it is cell-based, Pseudomonas aeruginosa. To be noted: in FdUrd+trimethoprim+uridine combination.
The subject of the next test is S. aureus EN008. In words: MIC. In kind it is cell-based, Staphylococcus aureus. To be noted: in FdUrd+trimethoprim+uridine combination.
The test system of a further test is P. aeruginosa EN0422. In words: MIC. In kind it is cell-based, Pseudomonas aeruginosa. To be noted: in FdUrd+trimethoprim+uridine combination.
The test system of the next test is E. coli EN003. In words: MIC. The settings on record: in FdUrd+trimethoprim+uridine combination. In kind it is cell-based, Escherichia coli.
In a further test the test system is A. baumannii EN007. In words: MIC. To be noted: in FdUrd+trimethoprim+uridine combination. In kind it is cell-based, Acinetobacter baumannii.
A further test relates to S. marescens EN0454. In words: MIC. In kind it is cell-based, Serratia marescens. The settings on record: in FdUrd+trimethoprim+uridine combination.
Another test relates to P. aeruginosa EN0459. Nature of the test: MIC. In kind it is cell-based, Pseudomonas aeruginosa. The settings on record: in FdUrd+trimethoprim+uridine combination.
A further test deals with P. aeruginosa EN0460. In words: MIC. In kind it is cell-based, Pseudomonas aeruginosa. The settings on record: in FdUrd+trimethoprim+uridine combination.
A further test deals with K. pneumoniae EN0142. In words: MIC. In kind it is cell-based. To be noted: in FdUrd+trimethoprim+uridine combination.
The next test concerns E. coli EN0134. Nature of the test: MIC. In kind it is cell-based. The settings on record: in FdUrd+trimethoprim+uridine combination.
For the next test, the system named is K. pneumoniae EN0143. Nature of the test: MIC. In kind it is cell-based. To be noted: in FdUrd+trimethoprim+uridine combination.
In the next test the test system is K. pneumoniae EN0145. Nature of the test: MIC. In kind it is cell-based. To be noted: in FdUrd+trimethoprim+uridine combination.
A further test has as its system P. aeruginosa EN004. Nature of the test: MIC. In kind it is cell-based, Pseudomonas aeruginosa. The settings on record: in FdUrd+trimethoprim+uridine combination.
A further test relates to K. pneumoniae EN0437. Nature of the test: MIC. In kind it is cell-based. The settings on record: in FdUrd+trimethoprim+uridine combination.
The test system of a further test is E. coli EN0235. In kind it is cell-based.
The test system of another test is K. pneumoniae EN0140. In words: MIC. In kind it is cell-based. The settings on record: in FdUrd+trimethoprim+uridine combination.
The next test deals with E. coli EN0137. Nature of the test: MIC. In kind it is cell-based. The settings on record: in FdUrd+trimethoprim+uridine combination.
The next test relates to K. pneumoniae EN0262. Nature of the test: MIC. In kind it is cell-based. To be noted: in FdUrd+trimethoprim+uridine combination.
Another test has as its system M. luteus EN0455. In words: MIC. In kind it is cell-based, Micrococcus luteus. The settings on record: in FdUrd+trimethoprim+uridine combination.
In another test the test system is E. coli EN0136. Nature of the test: MIC. In kind it is cell-based. To be noted: in FdUrd+trimethoprim+uridine combination.
The subject of another test is E. coli strain no 2. In words: MIC. To be noted: Escherichia coli.
Another test deals with S. aureus strain no 13. Nature of the test: MIC. To be noted: Staphylococcus aureus, NO13, read-out: MIC of trimethoprim only.

Converted amounts (≈) assume the structure as drawn. Where two headings read alike, the source gives them in different places.

As to `O=c1[nH]c(=O)n([C@H]2C[C@H](O)[C@@H](CO)O2)cc1F` [FdUrd], the MIC with P. mirabilis EN0457 is 1 µg/mL; in the test with E. coli EN0139, 0.5 µg/mL; in the test with A. baumannii EN016 it was 4 µg/mL; in the test with P. aeruginosa EN005, 0.25 µg/mL; with S. aureus EN008 it was less than 0.008 µg/mL; in the test with P. aeruginosa EN0422, greater than 4 µg/mL. Besides, the minimum inhibitory concentration (MIC) in the test on E. coli EN003 is 0.016 µg/mL; with A. baumannii EN007, greater than 4 µg/mL; in the test on S. marescens EN0454, greater than 4 µg/mL; in the test on P. aeruginosa EN0459 it was greater than 4 µg/mL; with P. aeruginosa EN0460, greater than 4 µg/mL; with K. pneumoniae EN0142 it was 0.125 µg/mL. The minimal inhibitory concentration (MIC) with E. coli EN0134 was greater than 4 µg/mL; with K. pneumoniae EN0143, greater than 4 µg/mL; in the test with K. pneumoniae EN0145, greater than 4 µg/mL; with P. aeruginosa EN004, greater than 4 µg/mL; in the test on K. pneumoniae EN0437 it was greater than 4 µg/mL; with E. coli EN0235, 0.06 µg/mL (≈ 0.244 µM). In addition, the MIC with K. pneumoniae EN0140 is greater than 4 µg/mL; in the test on E. coli EN0137 it was greater than 4 µg/mL; in the test on K. pneumoniae EN0262, 2 µg/mL; with M. luteus EN0455, 2 µg/mL; in the test on E. coli EN0136, 1 µg/mL.

The molecule `COc1cc(Cc2cnc(N)nc2N)cc(OC)c1OC` [Trimethoprim, trimethoprim] gave a score at sampling with E. coli (Trimethoprim 30 mg/kg, single mice) of 1. Moreover, the “inhibition in mice infected with E. coli” value in the test with E. coli (murine peritonitis model) was “slight inhibition”. The minimal inhibitory concentration (MIC) with E. coli strain no 2 (NO2, E. coli strain 2, 5 uM thymidine, uridine 0 μg/ml) was 5 to 10 µg/mL (≈ 17.2 to 34.4 µM); with E. coli strain no 2 (NO2, E. coli strain 2, 5 uM thymidine, uridine 10 μg/ml), 2.5 to 5 µg/mL (≈ 8.61 to 17.2 µM); against E. coli strain no 2 (NO2, E. coli strain 2, 5 uM thymidine, uridine 100 μg/ml), 2.5 to 5 µg/mL (≈ 8.61 to 17.2 µM); in the test on E. coli strain no 2 (NO2, read-out: MIC of trimethoprim only, E. coli strain no 2), 8 to 16 µg/mL; in the test with S. aureus strain no 13, less than 32 µg/mL.

What is called MIC is the least concentration at which growth counts as inhibited.

The record behind these values is patent publication US10828316B2, “Method of treating bacterial infections” (priority 2016, dated 2020).
